According to the supplement of paper PMC10307832:

Tests used:
Experiment in all cases: relative viability (nuclei count vs DMSO), 5 days (fraction); higher = more cells survive
[1] = compound: CC1=CC(=CC=C1)NC2=NC(=CS2)C3=CC=NC=C3 + Cc1nc(NC(=O)N2CCC[C@H]2C(N)=O)sc1-c1ccnc(C(C)(C)C(F)(F)F)c1 [Alpelisib] (partner 2 µM)
In short: (§1)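 Lung cancer cell lines were seeded in 1536-well plates and dosed by pin tool the next day, with either a single drug or a fixed anchor-drug dose combined with five library-drug doses (not always all listed) spaced in √10 steps. Five days later, one step fixed the cells and stained their nuclei (final 0.05% Triton X-100, 1% formaldehyde, 1 ug/ml Hoechst), and nuclei were counted on 4× images. Relative viability is the nuclei count in treated wells divided by the count in vehicle wells, and each value is the median of duplicate plates.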

[2] = compound: CC1=CC(=CC=C1)NC2=NC(=CS2)C3=CC=NC=C3 + Nc1nc2[nH]cc(CCc3ccc(C(=O)N[C@@H](CCC(=O)O)C(=O)O)cc3)c2c(=O)[nH]1 [Pemetrexed] (partner 0.2 µM)
In short: as §1

[3] = compound: CC1=CC(=CC=C1)NC2=NC(=CS2)C3=CC=NC=C3 + O=C(c1cc(Cc2n[nH]c(=O)c3ccccc23)ccc1F)N1CCN(C(=O)C2CC2)CC1 [Olaparib] (partner 8 µM)
In short: as §1

Masitinib + Dasatinib = compound: Cc1ccc(NC(=O)c2ccc(CN3CCN(C)CC3)cc2)cc1Nc1nc(-c2cccnc2)cs1 [Masitinib] + Cc1nc(Nc2ncc(C(=O)Nc3c(C)cccc3Cl)s2)cc(N2CCN(CCO)CC2)n1 [Dasatinib] (partner 0.075 µM)
In short: as §1

Cell Line UMC-11 has a relative viability ([1]; first compound 0.08 µM) of 1.02, a relative viability ([1]; first compound 0.253 µM) of 0.91 and a relative viability ([1]; first compound 0.8 µM) of 0.993. The relative viability ([1]; first compound 2.53 µM) was 0.993, the relative viability ([1]; first compound 8 µM) was 1.06 and the relative viability ([2]; first compound 0.08 µM) was 0.662. For the same cell line, the relative viability ([2]; first compound 0.253 µM) was 0.802, the relative viability ([2]; first compound 0.8 µM) was 0.775 and the relative viability ([2]; first compound 2.53 µM) was 0.834. It also gave a relative viability ([2]; first compound 8 µM) of 0.825, a relative viability ([3]; first compound 0.08 µM) of 0.339 and a relative viability ([3]; first compound 0.253 µM) of 0.386. For the same cell line, the relative viability ([3]; first compound 0.8 µM) was 0.381, the relative viability ([3]; first compound 2.53 µM) was 0.806 and the relative viability ([3]; first compound 8 µM) was 0.402. For the same cell line, the relative viability (Masitinib + Dasatinib; first compound 0.03162 µM) was 0.35, the relative viability (Masitinib + Dasatinib; first compound 0.1 µM) was 0.535 and the relative viability (Masitinib + Dasatinib; first compound 0.3162 µM) was 0.556. It also gave a relative viability (Masitinib + Dasatinib; first compound 1 µM) of 0.509.
